Data on twelve molecules can be found in patent US5216001A, “Indole derivatives” (H. Lunbeck A/S, priority 1990, dated 1993).

Usually IC50 stands for the point on the concentration scale where inhibition reaches its midpoint.

The target of assay [1] is T1, serotonin S2 (5-HT2) receptors (Rattus norvegicus, UniProt P14842).
T1 construct: cortical tissue is dissected and weighed; from tissue; host or cells: cerebral cortex membranes of male Wistar (Mol:Wist) rats
Nature of the assay: inhibition of 3H-ketanserin binding to serotonin S2 (5-HT2) receptors in rat cortex in vitro. The conditions noted are these: 3H-ketanserin 0.5 nM, rat cortex membranes, read-out: Binding IC50, 3H Ket. The procedure: Method in Hyttel, Pharmacology & Toxicology, 61, 126-129. 1987.
Male Wistar (Mol:Wist) rats (125-250 g) are sacrifices and cortical tissue is dissected and weighed. The tissue is homogenized (Ultra Turrax, 10 sec.) in 10 ml of ice-cold 50 mM tris buffer pH 7.7 (at 25° C.). The centrifuge glassware used in this step has been rinsed by sonication for 10 min. in ethanol. The homogenate is centrifuged twice at 20,000 g for 10 min. at 4° C. with rehomogenization of the pellet in 10 ml ice-cold buffer. The final pellet is homogenized in 500 vol (w/v) ice-cold buffer.
Incubation tubes kept on ice in triplicate receive 100 μl of drug solution in water (or water for total binding) and 2000 μl of tissue suspension (final tissue content corresponds to 4 mg original tissue). […] After incubation for 30 min. the samples are filtered under vacuum (0-50 mBar) through Whatman GF/F filters (25 mm). The tubes are rinsed with 5 ml ice-cold buffer which are then poured on the filters. Thereafter, the filters are washed with 2×5 ml of buffer. The filters are placed in counting vials and 4 ml of appropriate scintillation fluid (e.g., Picofluor™15) are added. After shaking for 1 h and storage 2 hrs in the dark the content of radioactivity is determined by liquid scintillation counting. Specific binding is obtained by subtracting the nonspecific binding in the presence of 1 μM mianserin. For determination of the inhibition of binding five concentrations of drugs covering 3 decades are used.
The IC50 value is determined as the concentration at which the binding is 50% of the total binding in control samples minus the nonspecific binding in the presence of 1 μM mianserin.

The target of the next assay is T2, dopamine D-2 receptors (Rattus norvegicus, UniProt P61169).
T2 construct: striatal tissue is dissected and weighed; from tissue; host or cells: corpus striatum membranes of male Wistar rats
Nature of the assay: inhibition of 3H-spiperone binding to dopamine D-2 receptors in rat corpus striatum in vitro. The procedure: INHIBITION OF ^3 H-SPIPERONE BINDING TO DOPAMINE D-2 RECEPTORS IN RAT CORPUS STRIATUM IN VITRO
By this method the inhibition by drugs of the binding of ^3 H-spiperone (0.5 nM) to dopamine D-2 receptors in membranes from rat corpus striatum is determined in vitro. Method and results in Hyttel and Larsen, J. Neurochem, 44, 1615-1622, 1985).
Male Wistar (Mol:Wistar) rats (125-250 g) are sacrificed and striatal tissue is dissected and weighed. The tissue is homogenized (Ultra Turrax, 10 sec.) in 10 ml of ice-cold 50 mM K-phosphate buffer pH 7.4 (at 25° C.). The homogenate is centrifuged twice at 20,000 g for 10 min. at 4° C. with rehomogenization of the pellet in 10 ml ice-cold buffer. The final pellet is homogenized in 1300 vol (w/v) ice-cold buffer.
Incubation tubes kept on ice in triplicate receive 100 μl of drug solution in water (or water for total binding) and 4000 μl of tissue suspension (final tissue content corresponds to 3.08 mg original tissue). The binding experimental is initiated by addition of 100 μl of ^3 H-spiperone (final concentration 0.5 nM) and by placing the tubes in a 37° C. water bath. After incubation for 10 min. the samples are filtered under vacuum (0-50 mBar) through Whatman GF/F filters (25 mm). The tubes are rinsed with 5 ml ice-cold buffer which are then poured on the filters. Thereafter, the filters are washed with 2×5 ml of buffer. The filters are placed in counting vials and 4 ml of appropriate scintillation fluid (e.g. Picofluor ™15) are added. After shaking for 1 h and storage 2 hrs in the dark the content of radioactivity is determined by liquid scintillation counting. Specific binding is obtained by subtracting the nonspecific binding in the presence of 10 μM of 6,7-ADTN.
For determination of the inhibition of binding five concentrations of drugs covering 3 decades are used.
England, specific activity 15-25 Ci/mmol.

[2] abbreviates: 3H-spiperone 0.5 nM, rat corpus striatum membranes, in vitro, read-out: Binding IC50, 3H Spi.

Where two headings read alike, the source gives them in different places.

T1 sequence (P14842 whole entry): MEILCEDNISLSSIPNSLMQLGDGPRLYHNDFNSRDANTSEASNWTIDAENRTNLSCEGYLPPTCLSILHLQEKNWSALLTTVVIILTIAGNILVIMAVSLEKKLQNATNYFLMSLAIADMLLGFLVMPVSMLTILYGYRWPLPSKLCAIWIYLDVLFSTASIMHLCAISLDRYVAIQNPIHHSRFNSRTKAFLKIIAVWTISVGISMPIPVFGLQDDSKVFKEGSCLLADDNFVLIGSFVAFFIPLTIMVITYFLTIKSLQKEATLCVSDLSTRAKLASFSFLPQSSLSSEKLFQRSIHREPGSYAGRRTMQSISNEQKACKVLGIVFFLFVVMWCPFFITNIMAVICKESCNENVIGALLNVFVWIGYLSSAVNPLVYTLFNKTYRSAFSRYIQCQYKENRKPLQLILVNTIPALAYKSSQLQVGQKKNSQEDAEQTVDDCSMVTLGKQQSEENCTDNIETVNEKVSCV
T2 sequence (P61169 whole entry): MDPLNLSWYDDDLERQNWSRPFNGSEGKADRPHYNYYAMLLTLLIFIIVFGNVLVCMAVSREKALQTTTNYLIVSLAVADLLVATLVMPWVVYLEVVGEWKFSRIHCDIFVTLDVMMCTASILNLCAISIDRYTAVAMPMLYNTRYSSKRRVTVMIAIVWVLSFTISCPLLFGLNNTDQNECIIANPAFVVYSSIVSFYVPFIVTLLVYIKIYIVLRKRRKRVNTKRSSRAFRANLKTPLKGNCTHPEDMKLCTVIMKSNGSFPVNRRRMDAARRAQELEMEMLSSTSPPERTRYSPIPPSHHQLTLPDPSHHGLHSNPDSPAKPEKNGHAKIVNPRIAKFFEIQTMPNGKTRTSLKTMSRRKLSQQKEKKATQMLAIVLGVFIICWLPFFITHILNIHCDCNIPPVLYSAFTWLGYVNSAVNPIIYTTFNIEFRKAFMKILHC

In the case of `Cc1ccc2c(C3=CCN(CCN4CCN(C(C)C)C4=O)CC3)cn(-c3ccc(F)cc3)c2c1` [Compound 2b, 1-(4-fluorophenyl)-6-methyl-3-[1-[2-[3-(2-propyl)-2-imidazolidinon-1-yl]ethyl]-1,2,3,6-tetrahydropyridin-4-yl]-1H-indole], the values for the IC50 (in assay [1]; on dopamine D-2 receptors) were 1.9 nM and 67 nM, respectively.
For `COc1ccc2c(C3CCN(CCN4CCOC4=O)CC3)cn(-c3ccc(F)cc3)c2c1` [Compound 4j, 1-(4-fluorophenyl)-6-methoxy-3-[1-[2-(2-oxazolidinon-1-yl]ethyl]-4-piperidyl]-1H-indole], the IC50 in assay [1] stood at 40 nM; on dopamine D-2 receptors (setting [2]), 1100 nM.
With `CC(C)N1CCN(CCN2CCC(c3cn(-c4ccc(F)cc4)c4cc(S(C)(=O)=O)ccc34)CC2)C1=O` [Compound 4k, 1-(4-fluorophenyl)-6-methylsulfonyl-3-[1-[2-[3-(2-propyl)-2-imidazolidinon-1-yl]ethyl]-4-piperidyl]-1H-indole], the IC50 in assay [1] is 9 nM; at dopamine D-2 receptors (setting [2]), 600 nM.
With `CC(C)N1CCN(CCN2CCC(c3cn(-c4ccc(F)cc4)c4cc(C#N)ccc34)CC2)C1=O` [Compound 5i, 6-cyano-1-(4-fluorophenyl)-3-[1-[2-[3-(2-propyl)-2-imidazolidinon-1-yl]ethyl]-4-piperidyl]-1H-indole], the IC50 in assay [1] was 8.6 nM; at dopamine D-2 receptors (setting [2]) it was 1100 nM.
Taken in the same sequence, the figures for `N#Cc1ccc2c(C3CCN(CCN4CCNC4=O)CC3)cn(-c3ccc(F)cc3)c2c1` [Compound 5j, 6-cyano-1-(4-fluorophenyl)-3-[1-[2-(2-imidazolidinon-1-yl)ethyl]-4-piperidyl]-1H-indole] were 13 nM and 1500 nM.
For `CC(C)N1CCN(CCN2CCN(c3cn(-c4ccc(F)cc4)c4cc(Cl)ccc34)CC2)C1=O` [Compound 6a, 6-chloro-1-(4-fluorophenyl)-3-[4-[2-[3-(2-propyl)-2-imidazolidinon-1-yl]ethyl]-1-piperazinyl]-1H-indole] the same measures were 2.7 nM and 81 nM.
As to `CCN(CCN1CCC(c2cn(-c3ccc(F)cc3)c3cc(Cl)ccc23)CC1)C(=O)NC(C)C` [Compound 9d, 6-chloro-1-(4-fluorophenyl)-3-[1-[2-[1-ethyl-3-(2-propyl)-1-ureido]-1-ethyl]-4-piperidyl]-1H-indole], the IC50 in assay [1] came out at 1.9 nM; on dopamine D-2 receptors (setting [2]), 150 nM.
Regarding `Cc1ccc2c(C3CCN(CCN4CCN(C(C)C)C4=O)CC3)cn(-c3cccs3)c2c1` [Compound 15b, 6-methyl-3-[1-[2-[3-(2-propyl)-2-imidazolidinon-1-yl]ethyl]-4-piperidyl]-1-(2-thie-nyl)-1H-indole], the IC50 in assay [1] came out at 6.7 nM; on dopamine D-2 receptors (setting [2]) it was 2500 nM.
For `Cc1ccc2c(C3CCN(CCN4CCN(C(C)C)C4=O)CC3)cn(-c3ccoc3)c2c1` [Compound 15d, 1-(3-furanyl)-6-methyl-3-[1-[2-[3-(2-propyl)-2-imidazolidinon-1-yl]ethyl]-4-piperi-dyl]-1H-indole] the same measures were 9.3 nM and 4500 nM.
In the case of `Cc1ccc2c(C3CCN(CCN4CCN(C(C)C)C4=O)CC3)cn(-c3ccncc3)c2c1` [Compound 15e, 6-methyl-3-[1-[2-[3-(2-propyl)-2-imidazolidinon-1-yl]ethyl]-4-piperidyl]-1-(4-pyri-dyl)-1H-indole], the IC50 in assay [1] came out at 7.6 nM; on dopamine D-2 receptors (setting [2]) it was 3500 nM.
Regarding `Cc1ccc2c(C3CCN(CCN4CCN(C(C)C)C4=O)CC3)cn(-c3cccc(C(F)(F)F)c3)c2c1` [Compound 15i, 3-[1-[2-[3-(2-propyl)-2-imidazolidinon-1-yl]ethyl]-4-piperidyl]-6-methyl-1-(3-trifluoromethylphenyl)-1H-indole], the IC50 in assay [1] stood at 150 nM; on dopamine D-2 receptors (setting [2]), 3200 nM.
As to `O=C1NCCN1CCN1CCC(c2cn(-c3ccccc3)c3cc(Cl)ccc23)CC1` [Compound 15m, 6-chloro-3-[1-[2-[2-imidazolidinon-1-yl]ethyl]-4-piperidyl]-1-phenyl-1H-indole], the values for the IC50 (in assay [1]; on dopamine D-2 receptors (setting [2])) were 4.4 nM and 410 nM, respectively.
